The values below come from patent US7968588B2, “Injectable formulation of antibiotic and solution for intravenous administration thereof” (eRigen Pharmaceuticals, Inc., priority 2006, dated 2011).

The experiment has as its system MRSA (strain ATCC 33591). The experiment can be described thus: In vivo efficacy study in a MRSA infection model in mice. To be noted: for survival (%) at dosage 1.0 mg/kg: single i.v. dose 1.0 mg/kg one hour after i.v. MRSA inoculation; for survival (%) at dosage 3.0 mg/kg: single i.v. dose 3.0 mg/kg one hour after i.v. MRSA inoculation; for 50% effective dose: single i.v. dose, calculated from the survival rate at each dosage. On the set-up: species or system Staphylococcus aureus. The method, then: Efficacy was compared between the present solution of WAP-8294A2 prepared in the manner shown in Example 4 and vancomycin for injection (5% dextrose solution) using an MRSA infection model in mice.
The 50% effective dose (mg/kg) was calculated from the survival rate at each dosage.

Starred links: 1 amine or outer side, 2 acyl side, 3 side chain; linkers in the order of their positions; H or OH if unused. Positions of bridges follow the written chain, without caps; N, C: chain ends. Non-standard residues stand in square brackets, D forms with d. Residues, ends and D or L forms follow the SMILES beside them. ξ: configuration not given here. ξAsn(3ξ-OH) = NC(=O)C(O)C(N)C(=O)O; X1 = CC(C)CCCC(CC(=O)[*:1])O[*:2]; NMeF = CN[CH](Cc1ccccc1)C(=O)O; NMeV = CN[CH](C(=O)O)C(C)C; Orn = NCCC[CH](N)C(=O)O

`CC(C)CCCC1CC(=O)NC(CO)C(=O)NC(C(O)C(N)=O)C(=O)NC(CO)C(=O)NCC(=O)N(C)C(Cc2ccccc2)C(=O)NC(CC(C)C)C(=O)NC(CCCN)C(=O)NC(CCC(=O)O)C(=O)NC(CC(N)=O)C(=O)NC(Cc2c[nH]c3ccccc23)C(=O)NC(CCCN)C(=O)N(C)C(C(C)C)C(=O)O1` (centres unmarked) [WAP-8294A2] (S[ξAsn(3ξ-OH)]SG[NMeF]L[Orn]ENW[Orn][NMeV]; linker N-C via X1; configuration not given here): the 50% effective dose is recorded as 0.06 mg/kg. In addition, the “survival (%) at dosage 0.01 mg/kg” value (single i.v. dose 0.01 mg/kg one hour after i.v. MRSA inoculation, observed for a week) is 10%. The “survival (%) at dosage 0.03 mg/kg” value (single i.v. dose 0.03 mg/kg one hour after i.v. MRSA inoculation, observed for a week) is given as 30%. The “survival (%) at dosage 0.1 mg/kg” value (single i.v. dose 0.1 mg/kg one hour after i.v. MRSA inoculation, observed for a week) is 60%. Also, the “survival (%) at dosage 0.3 mg/kg” value (single i.v. dose 0.3 mg/kg one hour after i.v. MRSA inoculation, observed for a week) is 100%. Where the note is “observed for a week”, the “survival (%) at dosage 1.0 mg/kg” value is recorded as 100% and the “survival (%) at dosage 3.0 mg/kg” value is 100%.
As for `CN[C@H](CC(C)C)C(=O)N[C@H]1C(=O)N[C@@H](CC(N)=O)C(=O)N[C@H]2C(=O)N[C@H]3C(=O)N[C@H](C(=O)N[C@H](C(=O)O)c4cc(O)cc(O)c4-c4cc3ccc4O)[C@H](O)c3ccc(c(Cl)c3)Oc3cc2cc(c3O[C@@H]2O[C@H](CO)[C@@H](O)[C@H](O)[C@H]2O[C@H]2C[C@](C)(N)[C@H](O)[C@H](C)O2)Oc2ccc(cc2Cl)[C@H]1O` [vancomycin, reference compound], the 50% effective dose is given as 3.12 mg/kg. For the setting “observed for a week”, the “survival (%) at dosage 1.0 mg/kg” value amounted to 0% and the “survival (%) at dosage 3.0 mg/kg” value is listed as 30%. In addition, where the note is “single i.v. dose 10 mg/kg one hour after i.v. MRSA inoculation, observed for a week”, the “survival (%) at dosage 10 mg/kg” value was determined as 100%.
